In patent publication US12643895B2, “Heteroaryl-substituted pyrazolo-pyridine protein kinase inhibitors for promoting liver regeneration or reducing or preventing hepatocyte death” (HepaRegeniX GmbH, priority 2019, dated 2026):

Experiments:
Assay type in all cases: biochemical
MKK4 = target: T1, MKK4 (Homo sapiens, UniProt P45985); assay: 33PanQinase radiometric kinase assay, MKK4; settings: category based on IC50-values; ATP at apparent Km; read-out: Potency MKK4
T1 construct: purchased ProQinase GmbH, Freiburg, Germany (assay service)
T1 sequence (P45985 1-399): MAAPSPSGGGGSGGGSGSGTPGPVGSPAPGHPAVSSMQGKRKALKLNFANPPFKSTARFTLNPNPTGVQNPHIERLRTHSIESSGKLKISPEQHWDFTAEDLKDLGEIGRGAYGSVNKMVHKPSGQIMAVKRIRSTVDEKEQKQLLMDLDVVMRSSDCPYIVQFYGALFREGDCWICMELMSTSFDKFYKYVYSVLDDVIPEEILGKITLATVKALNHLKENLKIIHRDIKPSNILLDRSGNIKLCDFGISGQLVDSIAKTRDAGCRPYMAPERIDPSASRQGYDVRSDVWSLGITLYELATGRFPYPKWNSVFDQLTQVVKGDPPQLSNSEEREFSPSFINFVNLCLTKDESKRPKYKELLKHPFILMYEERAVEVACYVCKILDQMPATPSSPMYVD
Procedure: (§1) The kinase activities of the compounds of the invention were measured using the 33PanQinase® Assay Service provided by ProQinase GmbH, Freiburg, Germany. Details of the assay conditions are disclosed on the website of ProQinase (https://www.proqinase.com/products-services-biochemical-assay-services/kinase-assays). In brief, all kinase assays were performed in 96-well FlashPlates™ from PerkinElmer (Boston, MA, USA) in a 50 μl reaction volume. The reaction cocktail was pipetted in four steps in the following order: • 20 μl of assay buffer (standard buffer) • 5 μl of ATP solution (in H2O) • 5 μl of test compound (in 10% DMSO) • 20 μl enzyme/substrate mix
(§2) The reaction cocktails were incubated at 30° C. for 60 minutes. The reaction is stopped with 50 μl of 2% (v/v) H3PO4, plates were aspirated and washed two times with 200 μl 0.9% (w/v) NaCl. Incorporation of ^33Pi was determined with a microplate scintillation counter (Microbeta, Wallac).
(§3) All assays were performed with a BeckmanCoulter/SAGIAN™ Core System.
(§4) In case of single concentration assays, the potency of the test compound is expressed as % residual activity. […] The fitting method used was a least-squares fit.

JNK1 = target: T2, JNK1 (Homo sapiens, UniProt P45983); assay: 33PanQinase radiometric kinase assay, JNK1 (off-target); settings: ratio IC50(off-target)/IC50(MKK4)
T2 construct: purchased ProQinase GmbH, Freiburg, Germany (assay service)
T2 sequence (P45983 whole entry): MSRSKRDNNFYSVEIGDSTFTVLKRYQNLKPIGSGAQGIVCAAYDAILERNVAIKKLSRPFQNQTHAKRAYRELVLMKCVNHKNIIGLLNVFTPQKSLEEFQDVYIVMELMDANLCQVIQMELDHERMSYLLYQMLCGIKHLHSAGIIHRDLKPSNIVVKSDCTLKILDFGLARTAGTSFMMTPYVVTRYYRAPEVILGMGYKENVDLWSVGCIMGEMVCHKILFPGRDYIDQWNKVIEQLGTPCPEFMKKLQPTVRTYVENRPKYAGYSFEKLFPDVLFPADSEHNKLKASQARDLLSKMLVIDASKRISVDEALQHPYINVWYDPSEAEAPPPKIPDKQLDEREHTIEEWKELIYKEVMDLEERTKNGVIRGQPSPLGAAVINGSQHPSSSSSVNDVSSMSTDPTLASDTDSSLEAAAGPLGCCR
Procedure: as §1, §2, §3, §4
(§5) Selectivity of test compounds against BRaf, JNK1 and MKK7, altogether denominated as off-targets was calculated by the ratio of IC50 (off-target)/IC50 (MKK4) and categorized as follows: […]

MKK7 = target: T3, MKK7 (Homo sapiens, UniProt O14733); assay: 33PanQinase radiometric kinase assay, MKK7 (off-target); settings: ratio IC50(off-target)/IC50(MKK4)
T3 construct: purchased ProQinase GmbH, Freiburg, Germany (assay service)
T3 sequence (O14733 1-419): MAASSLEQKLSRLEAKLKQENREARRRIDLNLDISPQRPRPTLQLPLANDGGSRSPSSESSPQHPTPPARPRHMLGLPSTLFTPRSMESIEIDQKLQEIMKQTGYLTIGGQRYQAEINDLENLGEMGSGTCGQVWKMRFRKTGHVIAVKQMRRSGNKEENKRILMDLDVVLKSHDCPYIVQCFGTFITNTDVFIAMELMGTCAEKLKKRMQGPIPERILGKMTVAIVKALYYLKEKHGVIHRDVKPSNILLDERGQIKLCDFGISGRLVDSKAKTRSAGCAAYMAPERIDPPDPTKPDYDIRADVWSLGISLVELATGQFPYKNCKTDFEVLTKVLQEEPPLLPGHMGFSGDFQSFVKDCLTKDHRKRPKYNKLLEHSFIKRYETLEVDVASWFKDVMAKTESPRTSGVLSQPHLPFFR
Procedure: as §1, §2, §3, §4, §5

BRaf = target: T4, BRaf (Homo sapiens, UniProt P15056); assay: 33PanQinase radiometric kinase assay, BRaf (off-target); settings: ratio IC50(off-target)/IC50(MKK4)
T4 construct: purchased ProQinase GmbH, Freiburg, Germany (assay service)
T4 sequence (P15056 whole entry): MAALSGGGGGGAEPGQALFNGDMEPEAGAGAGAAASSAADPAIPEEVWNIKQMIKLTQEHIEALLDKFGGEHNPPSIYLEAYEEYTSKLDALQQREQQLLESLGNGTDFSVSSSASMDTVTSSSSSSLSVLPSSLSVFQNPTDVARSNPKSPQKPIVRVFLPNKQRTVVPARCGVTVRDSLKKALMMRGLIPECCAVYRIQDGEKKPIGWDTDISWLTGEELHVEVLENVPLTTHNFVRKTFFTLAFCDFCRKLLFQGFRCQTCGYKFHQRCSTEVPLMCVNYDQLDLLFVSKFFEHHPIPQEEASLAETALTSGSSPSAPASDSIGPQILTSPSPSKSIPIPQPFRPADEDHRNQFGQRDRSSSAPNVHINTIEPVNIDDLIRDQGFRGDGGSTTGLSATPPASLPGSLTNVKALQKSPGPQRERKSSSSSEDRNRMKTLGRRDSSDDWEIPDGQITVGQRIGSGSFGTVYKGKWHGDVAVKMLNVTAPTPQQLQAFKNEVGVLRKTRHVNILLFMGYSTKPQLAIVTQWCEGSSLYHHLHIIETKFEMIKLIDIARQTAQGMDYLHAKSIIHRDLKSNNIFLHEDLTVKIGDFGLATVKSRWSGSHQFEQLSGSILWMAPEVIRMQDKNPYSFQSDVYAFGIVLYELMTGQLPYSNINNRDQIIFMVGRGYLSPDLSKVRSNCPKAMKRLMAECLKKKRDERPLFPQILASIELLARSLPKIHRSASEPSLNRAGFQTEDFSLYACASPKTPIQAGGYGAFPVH
Procedure: as §1, §2, §3, §4, §5

Row | IC50 (MKK4) | Selectivity JNK1 (JNK1) | Selectivity MKK7 (MKK7) | Selectivity Braf (BRaf) | SMILES
1 | 100 to 1000 nM | ◯ | +++ (IC50(off-target)/IC50(MKK4) > 100) | + (10 ≥ IC50(off-target)/IC50(MKK4) > 3) | O=C(c1c(F)ccc(NS(=O)(=O)Cc2ccccc2)c1F)c1n[nH]c2ncc(-c3cnc(C4CC4)nc3)cc12 [Example 1, N-(3-(5-(2-cyclopropylpyrimidin-5-yl)-1H-pyrazolo[3,4-b]pyridine-3-carbonyl)-2,4-difluorophenyl)-1-phenylmethanesulfonamide]
2 | < 100 nM | +++ (IC50(off-target)/IC50(MKK4) > 100) | +++ (IC50(off-target)/IC50(MKK4) > 100) | +++ (IC50(off-target)/IC50(MKK4) > 100) | CS(=O)(=O)Nc1c(F)ccc(C(=O)c2n[nH]c3ncc(-c4ccc(Cl)cc4)cc23)c1F [Example 2, N-(3-(5-(4-chlorophenyl)-1H-pyrazolo[3,4-b]pyridine-3-carbonyl)-2,6-difluorophenyl)methanesulfonamide]
3 | 100 to 1000 nM | +++ (IC50(off-target)/IC50(MKK4) > 100) | +++ (IC50(off-target)/IC50(MKK4) > 100) | +++ (IC50(off-target)/IC50(MKK4) > 100) | CCCS(=O)(=O)Nc1c(F)ccc(C(=O)c2n[nH]c3ncc(-c4cncnc4)cc23)c1F [Example 6, N-(2,6-difluoro-3-(5-(pyrimidin-5-yl)-1H-pyrazolo[3,4-b]pyridine-3-carbonyl)phenyl)propane-1-sulfonamide]
4 | < 100 nM | +++ (IC50(off-target)/IC50(MKK4) > 100) | +++ (IC50(off-target)/IC50(MKK4) > 100) | +++ (IC50(off-target)/IC50(MKK4) > 100) | CCCS(=O)(=O)Nc1c(F)ccc(C(=O)c2n[nH]c3ncc(-c4cnc(O)nc4)cc23)c1F [Example 16, N-(2,6-difluoro-3-(5-(2-hydroxypyrimidin-5-yl)-1H-pyrazolo[3,4-b]pyridine-3-carbonyl)phenyl)propane-1-sulfonamide]
5 | < 100 nM | +++ (IC50(off-target)/IC50(MKK4) > 100) | +++ (IC50(off-target)/IC50(MKK4) > 100) | +++ (IC50(off-target)/IC50(MKK4) > 100) | CCCS(=O)(=O)Nc1c(F)ccc(C(=O)c2n[nH]c3ncc(-c4ccncc4Cl)cc23)c1F [Example 17, N-(3-(5-(3-chloropyridin-4-yl)-1H-pyrazolo[3,4-b]pyridine-3-carbonyl)-2,6-difluorophenyl)propane-1-sulfonamide]
6 | < 100 nM | +++ (IC50(off-target)/IC50(MKK4) > 100) | +++ (IC50(off-target)/IC50(MKK4) > 100) | +++ (IC50(off-target)/IC50(MKK4) > 100) | CCCS(=O)(=O)Nc1c(F)ccc(C(=O)c2n[nH]c3ncc(-c4ccncc4C)cc23)c1F [Example 18, N-(2,6-difluoro-3-(5-(3-methylpyridin-4-yl)-1H-pyrazolo[3,4-b]pyridine-3-carbonyl)phenyl)propane-1-sulfonamide]

Row | SMILES | IC50 (MKK4) | Selectivity JNK1 (JNK1) | Selectivity MKK7 (MKK7) | Selectivity Braf (BRaf)
7 | CCS(=O)(=O)Nc1c(F)ccc(C(=O)c2n[nH]c3ncc(-c4ccc(Cl)cc4)cc23)c1F [Example 3, N-(3-(5-(4-chlorophenyl)-1H-pyrazolo[3,4-b]pyridine-3-carbonyl)-2,6-difluorophenyl)ethanesulfonamide] | 100 to 1000 nM | ++ (100 ≥ IC50(off-target)/IC50(MKK4) > 10) | +++ (IC50(off-target)/IC50(MKK4) > 100) | +++ (IC50(off-target)/IC50(MKK4) > 100)
8 | CCOC(=O)c1ccc(-c2cnc3[nH]nc(C(=O)c4ccc(F)c(NS(C)(=O)=O)c4F)c3c2)cc1 [Example 4, Ethyl 4-(3-(2,4-difluoro-3-(methylsulfonamido)benzoyl)-1H-pyrazolo[3,4-b]pyridin-5-yl)benzoate] | 100 to 1000 nM | ++ (100 ≥ IC50(off-target)/IC50(MKK4) > 10) | +++ (IC50(off-target)/IC50(MKK4) > 100) | +++ (IC50(off-target)/IC50(MKK4) > 100)
9 | COC(=O)c1ccc(-c2cnc3[nH]nc(C(=O)c4ccc(F)c(NS(C)(=O)=O)c4F)c3c2)cn1 [Example 5, Methyl 5-(3-(2,4-difluoro-3-(methylsulfonamido)benzoyl)-1H-pyrazolo[3,4-b]pyridin-5-yl)picolinate] | 1000 to 10000 nM | + (10 ≥ IC50(off-target)/IC50(MKK4) > 3) | ++ (100 ≥ IC50(off-target)/IC50(MKK4) > 10) | +++ (IC50(off-target)/IC50(MKK4) > 100)
10 | CCCS(=O)(=O)Nc1c(F)ccc(C(=O)c2n[nH]c3ncc(-c4cnc(C)nc4)cc23)c1F [Example 7, N-(2,6-difluoro-3-(5-(2-methylpyrimidin-5-yl)-1H-pyrazolo[3,4-b]pyridine-3-carbonyl)phenyl)propane-1-sulfonamide] | < 100 nM | +++ (IC50(off-target)/IC50(MKK4) > 100) | +++ (IC50(off-target)/IC50(MKK4) > 100) | +++ (IC50(off-target)/IC50(MKK4) > 100)
11 | CCCS(=O)(=O)Nc1c(F)ccc(C(=O)c2n[nH]c3ncc(-c4cnc(C(=O)O)nc4)cc23)c1F [Example 8, 5-(3-(2,4-difluoro-3-(propylsulfonamido)benzoyl)-1H-pyrazolo[3,4-b]pyridin-5-yl)pyrimidine-2-carboxylic acid] | < 100 nM | +++ (IC50(off-target)/IC50(MKK4) > 100) | ++ (100 ≥ IC50(off-target)/IC50(MKK4) > 10) | +++ (IC50(off-target)/IC50(MKK4) > 100)
12 | CCCS(=O)(=O)Nc1c(F)ccc(C(=O)c2n[nH]c3ncc(-c4cnc(C#N)nc4)cc23)c1F [Example 9, N-(3-(5-(2-cyanopyrimidin-5-yl)-1H-pyrazolo[3,4-b]pyridine-3-carbonyl)-2,6-difluorophenyl)propane-1-sulfonamide] | 100 to 1000 nM | ++ (100 ≥ IC50(off-target)/IC50(MKK4) > 10) | ++ (100 ≥ IC50(off-target)/IC50(MKK4) > 10) | ++ (100 ≥ IC50(off-target)/IC50(MKK4) > 10)
13 | CCCS(=O)(=O)Nc1c(F)ccc(C(=O)c2n[nH]c3ncc(-c4cnc(-c5nnn[nH]5)nc4)cc23)c1F [Example 10, N-(3-(5-(2-(1H-tetrazol-5-yl)pyrimidin-5-yl)-1H-pyrazolo[3,4-b]pyridine-3-carbonyl)-2,6-difluorophenyl)propane-1-sulfonamide] | < 100 nM | +++ (IC50(off-target)/IC50(MKK4) > 100) | ++ (100 ≥ IC50(off-target)/IC50(MKK4) > 10) | +++ (IC50(off-target)/IC50(MKK4) > 100)
14 | CCCS(=O)(=O)Nc1c(F)ccc(C(=O)c2n[nH]c3ncc(-c4cnc(Cl)nc4)cc23)c1F [Example 12, N-(3-(5-(2-chloropyrimidin-5-yl)-1H-pyrazolo[3,4-b]pyridine-3-carbonyl)-2,6-difluorophenyl)propane-1-sulfonamide] | 100 to 1000 nM | +++ (IC50(off-target)/IC50(MKK4) > 100) | +++ (IC50(off-target)/IC50(MKK4) > 100) | +++ (IC50(off-target)/IC50(MKK4) > 100)
15 | CCCS(=O)(=O)Nc1c(F)ccc(C(=O)c2n[nH]c3ncc(-c4ccc(C(C)(C)C)cc4)cc23)c1F [Example 19, N-(3-(5-(4-(tert-butyl)phenyl)-1H-pyrazolo[3,4-b]pyridine-3-carbonyl)-2,6-difluorophenyl)propane-1-sulfonamide] | 100 to 1000 nM | ++ (100 ≥ IC50(off-target)/IC50(MKK4) > 10) | +++ (IC50(off-target)/IC50(MKK4) > 100) | +++ (IC50(off-target)/IC50(MKK4) > 100)
